From PubChem BioAssay (NCI) come the findings set out here.

Values after ≈ are worked out from the molar mass of the structure shown.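 Dose response: 5 concentrations. Exposure: 48 h. Format: 96-well plates. Endpoint: linear interpolation; highest concentration if not reached. GI50 marks 50% less growth. TGI is the concentration that stops growth completely.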 Some results are limits rather than exact numbers.

Among the test systems are UACC-62 melanoma; SNB-19 CNS; HOP-92 NSCLC; SF-539 CNS; ACHN renal; T-47D breast; 786-0 renal; A498 renal; HCC-2998 colon.
What all share (test): NCI tumour cell line growth inhibition, 48 h

Regarding `O=C(NCc1ccc(Cl)cc1)c1cc2sccc2nc1C(F)(F)F`, the TGI with UACC-62 melanoma is more than 100 µM; in the assay with SNB-19 CNS it was 51.7 µM; in the assay with HOP-92 NSCLC it was more than 100 µM; in the assay with SF-539 CNS, 70 µM; with ACHN renal it was 45.8 µM; in the assay on T-47D breast it was more than 100 µM. In the assay on 786-0 renal, this compound gave a TGI of 39.8 µM.

As to `C[C@]12CC[C@@H]3c4ccc(OC(=O)c5ccccc5)cc4CC[C@H]3[C@@H]1CC[C@@H]2Oc1c2ccccc2nc2ccccc12`, the TGI in the assay with UACC-62 melanoma was more than 50 µM; in the assay on SNB-19 CNS, 15.5 µM; in the assay with HOP-92 NSCLC, 36.9 µM; in the assay with ACHN renal it was more than 50 µM; with 786-0 renal, 14.3 µM; in the assay on A498 renal, more than 50 µM. This compound also came in with a TGI in the assay with HCC-2998 colon of 16.9 µM.

Consider `Clc1ccc(N=c2oc3ccccc3cc2-c2nc3ccccc3[nH]2)c(Cl)c1`, for which the TGI in the assay on UACC-62 melanoma, with SNB-19 CNS, in the assay with HOP-92 NSCLC, in the assay with ACHN renal and in the assay with T-47D breast was more than 100 µM in each case.

For `O=C1c2cccc3cccc(c23)C(=O)N1CCCNOCCONCCCN1C(=O)c2cccc3cccc(c23)C1=O`, the TGI in the assay on UACC-62 melanoma, with SNB-19 CNS, in the assay on HOP-92 NSCLC, in the assay with ACHN renal, in the assay on 786-0 renal and in the assay with A498 renal was more than 100 µM each time. The compound also yielded a TGI in the assay on HCC-2998 colon of more than 100 µM.

For `CCCCOCn1c(=O)[nH]c(=O)c2cc(Br)ccc21`, the TGI in the assay on UACC-62 melanoma was more than 100 µM; in the assay with SNB-19 CNS, more than 100 µM; in the assay on HOP-92 NSCLC it was more than 100 µM; in the assay with SF-539 CNS, more than 100 µM; in the assay on ACHN renal it was 42.1 µM; with 786-0 renal, more than 100 µM. For the same compound, the TGI in the assay with A498 renal and in the assay with HCC-2998 colon was more than 100 µM each time.

Turning to `O=S1(=O)c2ccccc2NC(=S)CC1c1ccccc1` (stereo not given), the TGI in the assay on UACC-62 melanoma, with SNB-19 CNS, with ACHN renal, in the assay with T-47D breast and with 786-0 renal was more than 100 µM in each case.

Turning to `COc1ccc(C(=O)N2c3ccccc3Sc3ccccc32)c(C(F)(F)F)c1`, the GI50 was 0.438 µM in the assay on UACC-62 melanoma; 0.152 µM with HOP-92 NSCLC; 0.271 µM in the assay on SF-539 CNS; 1.33 µM in the assay on ACHN renal; 0.282 µM in the assay on A498 renal; 0.467 µM with HCC-2998 colon. In addition, the TGI in the assay with UACC-62 melanoma was more than 100 µM; in the assay on HOP-92 NSCLC it was 3.91 µM; in the assay on SF-539 CNS, 0.995 µM; in the assay on ACHN renal it was more than 100 µM; in the assay on A498 renal it was 0.877 µM; in the assay on HCC-2998 colon it was 32 µM.

Turning to `COc1cc(/C=C2/N=C(c3ccccc3)N(C3=NNC4(C(=O)N3)c3ccccc3-c3ccccc34)NC2=O)ccc1O`, the GI50 was 27.4 µg/mL in the assay on UACC-62 melanoma; 34.6 µg/mL (≈ 62.1 µM) in the assay on SNB-19 CNS; 28.7 µg/mL with SF-539 CNS; 36.3 µg/mL in the assay on ACHN renal; 17 µg/mL (≈ 30.6 µM) with T-47D breast. Besides, the TGI came out at 48.3 µg/mL with UACC-62 melanoma; 87.3 µg/mL in the assay with SNB-19 CNS; 59.3 µg/mL in the assay with SF-539 CNS; 123 µg/mL in the assay on ACHN renal; 65 µg/mL in the assay on T-47D breast.

For `COc1ccc2c(c1)/c(=C/c1ccc(N(C)C)cc1)c1cc(-c3ccccc3)[n+](C)n12`, the TGI in the assay with UACC-62 melanoma came out at 2.01 µM; in the assay with SNB-19 CNS, 1.21 µM; in the assay on HOP-92 NSCLC, 0.784 µM; in the assay on ACHN renal it was 5.68 µM; in the assay with 786-0 renal, 1.6 µM; with A498 renal, 2.75 µM.

In the case of `O=C(NCCCNCCNC(=O)c1cc(-c2ccccc2)nc2ccccc12)c1cc(-c2ccccc2)nc2ccccc12`, the TGI came to 3.93 µM in the assay on SNB-19 CNS; 6.37 µM in the assay on HOP-92 NSCLC; 3.57 µM in the assay with SF-539 CNS; 3.3 µM in the assay with ACHN renal; 3.24 µM in the assay on 786-0 renal; 4.76 µM in the assay on A498 renal. The compound further returned a TGI with HCC-2998 colon of 3.11 µM.

As to `Nc1cc(N2CCCC2)nc(=O)n1Cc1ccccc1`, the TGI in the assay on SNB-19 CNS, with HOP-92 NSCLC, in the assay on SF-539 CNS, in the assay on ACHN renal and with 786-0 renal was more than 100 µM in each case.

With `C[C@]12CC[C@H](O)CC1=CC[C@@H]1[C@@H]2CC[C@]2(C)/C(=N/OCCN3CCCC3)CC[C@@H]12`, the TGI turned out to be 30.1 µM in the assay on UACC-62 melanoma; 72.1 µM in the assay on SNB-19 CNS; 28.1 µM with SF-539 CNS; 68.2 µM in the assay on ACHN renal; 33.6 µM in the assay with 786-0 renal; 29.8 µM in the assay on A498 renal. This compound also displayed a TGI in the assay on HCC-2998 colon of 37.1 µM.

With `O=c1[nH]nc(Cc2ccccc2)n1-n1cnnc1`, the TGI in the assay with UACC-62 melanoma, in the assay on SNB-19 CNS, in the assay on HOP-92 NSCLC, in the assay on SF-539 CNS, with ACHN renal and in the assay on 786-0 renal was more than 100 µM in each case. This compound also yielded a TGI in the assay on HCC-2998 colon of more than 100 µM.

`O=C(CNc1ccc(Cl)cc1Cl)NC1C=Cc2ccc(S(=O)(=O)Nc3ccc(Cl)cc3Cl)cc2C1=O` (stereo not given): the TGI in the assay with UACC-62 melanoma, in the assay on SNB-19 CNS, with HOP-92 NSCLC, in the assay on SF-539 CNS, in the assay with ACHN renal and with 786-0 renal was more than 100 µM each time. The compound also gave a TGI in the assay with HCC-2998 colon of more than 100 µM.
